Results taken from US20080207498A1, “Methods for Treating Alzheimer's Disease” (priority 2005, published 2008).

What was measured:
FcγIII = assay: Inhibition of FcR binding, reverse ELISA with PAP immune complexes; conditions: PAP pre-incubated with peptide one hour, one hour on FcγR coated plates; lower OD = more inhibition; positive control 1.588
Text: (§1) For this reason, a “reverse ELISA” technique was used to assess binding of the Fc region to ligands that bind to immune complexed IgG Fc. In a reverse ELISA, the enzyme (e.g., HRP) is not covalently conjugated to the Fc portion of the secondary antibody. Rather, a preformed immune complex of peroxidase-rabbit (or mouse) anti-peroxidase IgG (“PAP” complex) is used. […] In these experiments, an Fc CH2-CH3 cleft binding ligand (e.g., purified human C1q) was bound to microwell plates. In the absence of competitor, PAP complexes bound to the immobilized ligand and the reaction between HRP and its substrate produced a signal. This signal was reduced by polypeptides and compounds provided herein that inhibited PAP binding to the immobilized ligand.
(§2) Once the reverse ELISA protocol was established using the C1q assay, the assay was redesigned using […], FcγIIb, and FcγIII in place of C1q. Highly purified FcγIIa, FcγIIb and FcγIII were immunoadsorbed onto plastic microwells. After optimizing the FcγR reverse ELISA system, simple competitive inhibition experiments using polypeptides provided herein were conducted to investigate their ability to inhibit binding of immune complexes to purified FcγR.
(§3) Falcon microtiter plates were coated with 1:10 dilutions of highly purified FcγIIa, FcγIIb and FcγIII and incubated for 24 hours. The plates were washed and then blocked with 5×BSA blocking solution (Alpha Diagnostic International, San Antonio, Tex.) for 24 hours. PAP immune complexes were formed as described above. PAP (100 μl) were pre-incubated with 100 μl of peptide for one hour. PAP/peptide mixtures were added to the FcγR coated plates and incubated for one hour. After washing, plates were incubated with ABTS substrate for 15 minutes and read at 405 nm.

FcγIIb = assay: as above; conditions: PAP pre-incubated with peptide one hour, one hour on FcγR coated plates; lower OD = more inhibition; positive control 1.394
Text: as §1, §2, §3

purified human C1q = assay: Inhibition of C1q binding, reverse ELISA with PAP immune complexes; conditions: for inhibition of C1q binding, ranking in words: comment on Table 1
Text: as §1
PAP complexes were formed mixing 2 μl of rabbit anti-peroxidase (Sigma Chemicals, St. Louis, Mo.) with 50 μl of peroxidase (Sigma-Aldrich, St. Louis, Mo.) in 1 ml distilled water. PAP (100 μl) were pre-incubated with 100 μl of peptide for one hour, 100 μl were pre-incubated with 100 μl of peptide or human C1q (Quidel Corp., San Diego, Calif.) for one hour. The C1q/PAP and peptide/PAP mixtures (100 μl) were incubated with C1q coated plates for 30 minutes. After washing, plates were incubated with ATBS (Quidel Corp.) for 15 minutes and read at 405 nm.

FcR = assay: Inhibition of FcR binding to PAP; conditions: comment on Table 2
Description: as §2, §3

IgG Fc = assay: Binding of SEQ ID NO:16 to IgG Fc, alanine substitution; conditions: alanine substitution of SEQ ID NO:16 Val-13 or Trp-14
[1] = test system: human wt tau protein (441 residues); assay: Inhibition of immune complexed IgG binding to wt tau, reverse ELISA; conditions: for Wt tau protein (read at 405 nm): PAP pre-incubated with peptide one hour, 60 minutes on tau coated plates (16.7 μg/ml), positive control 0.695, substrate only 0.060
Text: as §1
PAP complexes were formed by mixing 2 μl of rabbit anti-peroxidase with 50 μl of peroxidase in 1 ml distilled water. PAP (100 μl) were pre-incubated with 100 μl of peptide for one hour. Control PAP (200 μl) also was incubated for one hour. 100 μl of either PAP or PAP/peptide was added to Falcon microtiter plates that had been coated for 24 hours with 16.7 μg/ml human wt tau protein (441 residues; Sigma-Aldrich). The PAP or peptide/PAP mixtures (100 μl) were added after one hour to tau coated plates and incubated for 60 minutes. After washing, plates were incubated with ATBS for 15 minutes, and read at 405 nm.

[2] = test system: human wt β amyloid peptide 1-40; assay: Inhibition of immune complexed IgG binding to wt β-amyloid peptide, reverse ELISA; conditions: for Wt 1-40 β-amyloid peptide (read at 405 nm): PAP pre-incubated with peptide one hour, 60 minutes on β-amyloid coated plates (33 μg/ml), positive control 3.278, substrate only 0.061
Text: as §1
Different fragments of the Aβ peptide contribute to the amyloid plaques pathognomic for AD, and these Aβ fragments appear to stimulate microglial activation and subsequent AD neuropathology. Thus, experiments were conducted to test Aβ 1-40 for binding to immune complexes, and to determine whether the inhibitors described herein can inhibit binding of PAP immune complexes to Aβ peptide. PAP complexes were prepared by mixing 2 μl of rabbit anti-peroxidase with 50 μl of peroxidase in 1 ml distilled water. PAP (100 μl) were pre-incubated with 100 μl of peptide for one hour. Control PAP (200 μl) also were incubated for one hour, and 100 μl of either PAP or PAP/peptide was added to Falcon microtiter plates that had been coated for 24 hours with 33 μg/ml human wt β amyloid peptide 1-40 (amyloid precursor protein (APP) fragment 1-40; Sigma-Aldrich) having the sequence […]Ans-Lys-Gly-Ale-[…](SEQ ID NO:39). The PAP or peptide/PAP mixtures were incubated on the β-amyloid peptide coated plates for 60 minutes. After washing, plates were incubated with ATBS for 15 minutes and read at 405 nm.

FcγIIa = assay: Inhibition of FcR binding, reverse ELISA with PAP immune complexes; conditions: PAP pre-incubated with peptide one hour, one hour on FcγR coated plates; lower OD = more inhibition; positive control 1.599
Text: as §1, §2, §3

Sequence | FcγIII (read at 405 nm) (FcγIII) | FcγIIb (read at 405 nm) (FcγIIb) | inhibition of C1q binding, ranking in words (purified human C1q) | Wt tau protein (read at 405 nm) [1] | Wt 1-40 β-amyloid peptide (read at 405 nm) [2] | also measured
APPCAFHLGELVWCT | 0.880 | 0.380 |  |  |  | 
APPCARHLGELVWCT |  |  | next best result |  |  | 
APPCAWHLGELVWCT | 0.530 |  |  |  |  | 
APPDCAWHLGELVWCT | 0.670 |  | greatest inhibition of C1q binding, almost equaling C1q itself | 0.059 | 0.885 | inhibition of FcR binding to PAP, ranking in words (FcR): greatest inhibition; ΔΔG, disruption of binding (IgG Fc): ≥ 2.0 kcal/mol; inhibition of human wt tau protein binding to PAP, ranking in words ([1]; comment on Table 3): greatest inhibition
DCAFHLGELVWCT | 0.810 | 0.510 |  |  |  | FcγIIa (read at 405 nm) (FcγIIa): 0.660
DCAWHLGELVWCT |  |  |  | 0.322 | 0.151 | OD 405 nm (purified human C1q; PAP pre-incubated with peptide or C1q for one hour, 30 minutes on C1q coated plates, lower OD = more inhibition, positive control 2.355): 1.100; inhibition of human wt β amyloid peptide binding to PAP, ranking in words ([2]; comment on Table 4): greatest inhibition
